Data published in patent US20220372013A2, “PIPERIDINE-2,6-DIONE DERIVATIVES AND CROHN'S DISEASE TREATING” (Tianjin Hemay Pharmaceutical Sci-Tech Co., Ltd, priority 2016, published 2022).
Marks after values point to notes of the source that are not given here.

Tests used:
mice = assay: Biological Example 5: acute toxicity experiment of single oral administration in mice; format: in vivo; settings: single oral 1000 mg/Kg, Mean ± SD
Procedure, shortened: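 Fasted ICR mice (19-21 g, three females and three males per group) received a single oral dose of 1000 mg/Kg, given first to one mouse of each sex and then to the remaining four. Behaviour, nervous and autonomic signs, and deaths were recorded over 0-15 min. Animals were then observed for 7 days with daily body weight.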

[1] = test system: DNBS-Induced Inflammatory Bowel Disease Models in Rats; assay: Biological Example 3: DNBS-induced inflammatory bowel disease models in rats; format: in vivo, Wistar rats; settings: 30 mg/Kg i.g. qd × 7; for Adhesion Degree of Colon / Colon weight to length ratio / Inhibitory rate of colon adhesion / Inhibitory rate of ulcer area of colon / Inhibitory rate of weight increase per length / Ulcer area of colon: day 7; for Body weight: Mean ± SD
Protocol: 102 male Wistar rats were fasted for 40 hours. A 5% glucose injection (10 mL/Kg) was administered subcutaneously during fasting. 72 rats with normal conditions and moderate body weight were selected from the fasting rats. The animals were randomly divided into 9 groups according to the body weight (see Table 9. Grouped Table).
The animals were anesthetized with ether after 40 hours fasting. A specially made gavage device was slowly inserted into the enteric cavity at 8 cm from the anus. The model control group and each test group were administered with 0.5 mL of 50 mg/mL DNBS in 30% ethanol solution. The normal control group was administered with 0.5 mL of 30% ethanol solution. The animals were inverted in anesthesia for 15 minutes. The day when the model was prepared was day 0 of the experiment. After 4 hours of DNBS induction, the corresponding drug or the corresponding volume of 1% CMC-Na was administered once per day. On day 7 of the experiment, the animals were euthanized to score the colon adhesion degree, measure the length of colon and ulcer area, weigh colon and calculate the colon weight to length ratio.
One-way ANOVA analysis of the length of colon and colon weight per length of rats was performed by SPSS22. Statistical analyses between groups were performed. The adhesion degree was scored. Mann-Whitney U non-parametric test was performed on ulcer area. Statistical analyses between groups were performed.
Calculation Formula of Inhibitory rate of weight increase per length: (Colon weight to length ratio in model group−Colon weight to length ratio in administration group)/(Colon weight to length ratio in model group−Colon weight to length ratio in blank group)

Row | Structure (SMILES) | Daily Body Weight (mice; Female mice, Day 1) | Daily Body Weight (mice; Female mice, Day 2) | Daily Body Weight (mice; Female mice, Day 3) | Daily Body Weight (mice; Female mice, Day 4) | Daily Body Weight (mice; Female mice, Day 5) | Daily Body Weight (mice; Female mice, Day 6) | Adhesion Degree of Colon [1] | Colon weight to length ratio [1] | Inhibitory rate of colon adhesion [1] | Inhibitory rate of ulcer area of colon [1] | Inhibitory rate of weight increase per length [1] | Ulcer area of colon [1] | Body weight ([1]; Day 0) | Body weight ([1]; Day 1) | Body weight ([1]; Day 2) | Body weight ([1]; Day 3) | Body weight ([1]; Day 4) | Body weight ([1]; Day 5) | Body weight ([1]; Day 6) | Body weight ([1]; Day 7) | also measured
1 | COCCN1C(=O)CCC(N2C(=O)c3cccc(F)c3C2=O)C1=O (stereo not shown) [Example 4, 4-fluoro-2-(1-(2-methoxyethyl)-2,6-dioxopiperidin-3-yl)isoindolin-1,3-dione] | 18.4 ± 0.4 g | 21.8 ± 0.5 g | 23.2 ± 0.6 g | 23.5 ± 1.2 g | 24.7 ± 0.9 g | 24.2 ± 1.2 g | 0.6 ± 0.7 point | 125 ± 34 mg/cm | 64.7## % | 81.2# % | 38.0% | 0.58 ± 0.78# cm^2 | 137.1 ± 6.2 g | 136.2 ± 4.1 g | 138.2 ± 6.9 g | 141.1 ± 8.8 g | 151.8 ± 13.4 g | 162.5 ± 13.0 g | 170.8 ± 13.0 g | 181.0 ± 12.2 g | Daily Body Weight (mice; Female mice, Day 7): 24.0 ± 0.8 g; Daily Body Weight (mice; Male mice, Day 1): 17.6 ± 0.2 g; Daily Body Weight (mice; Male mice, Day 2): 22.2 ± 0.3 g; Daily Body Weight (mice; Male mice, Day 3): 23.6 ± 0.6 g; Daily Body Weight (mice; Male mice, Day 4): 24.7 ± 0.6 g; Daily Body Weight (mice; Male mice, Day 5): 26.7 ± 0.4 g; Daily Body Weight (mice; Male mice, Day 6): 27.6 ± 0.8 g; Daily Body Weight (mice; Male mice, Day 7): 28.2 ± 0.1 g
2 | Nc1cccc2c1C(=O)N(C1CCC(=O)N(CCO)C1=O)C2=O (stereo not shown) [Example 6, 4-amino-2-(1-(2-hydroxyethyl)-2,6-dioxopiperidin-3-yl)isoindolin-1,3-dione] | 17.5 ± 0.9 g | 21.5 ± 0.9 g | 21.6 ± 1.3 g | 22.0 ± 1.2 g | 22.3 ± 1.9 g | 22.4 ± 2.3 g | 0.6 ± 0.5 point | 99 ± 21 mg/cm | 64.7# % | 89.0# % | 70.9## % | 0.34 ± 0.54# cm^2 | 137.5 ± 5.6 g | 138.1 ± 8.0 g | 141.8 ± 13.1 g | 147.4 ± 16.5 g | 154.5 ± 17.7 g | 164.2 ± 16.2 g | 169.3 ± 18.4 g | 180.9 ± 15.5 g | Daily Body Weight (mice; Female mice, Day 7): 22.9 ± 2.0 g; Daily Body Weight (mice; Male mice, Day 1): 18.4 ± 0.6 g; Daily Body Weight (mice; Male mice, Day 2): 21.5 ± 0.9 g; Daily Body Weight (mice; Male mice, Day 3): 21.6 ± 1.3 g; Daily Body Weight (mice; Male mice, Day 4): 25.5 ± 0.5 g; Daily Body Weight (mice; Male mice, Day 5): 25.9 ± 0.9 g; Daily Body Weight (mice; Male mice, Day 6): 26.9 ± 1.1 g; Daily Body Weight (mice; Male mice, Day 7): 27.1 ± 1.1 g
3 | COCCN1C(=O)CCC(N2C(=O)c3ccc(F)cc3C2=O)C1=O (stereo not shown) [Example 21, 5-fluoro-2-(1-(2-methoxyethyl)-2,6-dioxopiperidin-3-yl)-isoindolin-1,3-dione] |  |  |  |  |  |  | 0.9 ± 0.7 point | 104 ± 17 mg/cm | 47.1# % | 70.0% | 64.6## % | 0.93 ± 1.52 cm^2 | 135.6 ± 6.9 g | 134.4 ± 6.8 g | 133.9 ± 6.8 g | 138.7 ± 6.8 g | 146.4 ± 6.9 g | 157.9 ± 8.9 g | 168.3 ± 4.6 g | 173.5 ± 7.4 g | 
